The source of these data is patent US20220064238A1, “Methods And Compositions For Modifying Transcription Factor Activity by Targeting The Human Mediator Complex Using Cell Penetrating Memetic Peptides And Methods of Treating Cancer Using The Same” (The Regents of the University of Colorado, a body corporate, priority 2020, published 2022).

Bridge positions count the residues as written; N and C are the ends. Square brackets hold non-standard residues; d marks the D form. Peptide text beside a SMILES is read from it. R8 = C=CCCCCCC[C@@](C)(N)C(=O)O; S5 = C=CCCC[C@](C)(N)C(=O)O

Series [1] deals with human Mediator complex (human).
Another series deals with basal transcription. Nature of the series: In vitro transcription on naked DNA templates, basal (no activator). Type of series: biochemical, human. As to conditions: no GAL4-p53, naked DNA templates. The text has this: To screen peptides for the ability to selectively block p53-dependent transcription, we required an assay that enabled p53-dependent activation but that could also support basal (i.e. activator-independent) transcription. The present inventors had previously established an in vitro transcription assay (using highly purified human factors (FIG. 1A). A key feature of this assay was that both activated and basal transcription could be reconstituted on naked DNA templates (i.e. DNA templates not assembled into chromatin). To adapt this assay for purposes of measuring basal vs. p53-activated transcription, we generated templates with Gal4 DNA binding sites upstream of the adenovirus major late promoter sequence (FIG. 5A, B). Upon titration of a Gal4 DNA Binding Domain (DBD)-p53 Activation Domain (AD; residues 1-70) fusion protein into this system, we observed pol II-dependent transcription that was dependent on p53AD and Mediator (FIG. 5C). Reactions containing Gal4-p53AD generally produced about two- to four-fold more transcripts compared to reactions with no activator (FIG. 5C). Because experiments without Gal4-p53AD produced a low level of “basal” transcription that could be quantitated, this system allowed assessment of both p53-activated and basal transcription. […]

Series [2] relates to pol II occupancy at the p21 locus. Nature of the series: ChIP of RNA polymerase II occupancy at CDKN1A (p21). The series is classed as cell-based. The conditions noted are these: 3 h post-Nutlin, Ser5-phosphorylated pol II ChIP. From the text: FIGS. 13A-B. Summary of ChIP experiments, showing that RNA polymerase II occupancy at the p53 target gene CDKN1A (p21) is reduced in cells treated with the bivalent peptide (peptide). A) Time course following Nutlin induction, to determine ideal time point to probe pol II occupancy at the p21 locus. […] However, pol II occupancy is reduced in cells treated with the bivalent peptide. […] Pol II phosphorylated at serine-5 of its C-terminal domain was used for ChIP analysis, because this is a proxy for initiating pol II at gene promoters (start sites). Data represent biological triplicates. Similar results were observed genome-wide, using ChIP-seq, although the timing of induction across p53 target genes will vary (data not shown).

In series [3] the test system is p53 target genes in HCT116 cells. The experiment in a line: RNA-Seq / GSEA in HCT116 cells, p53 pathway genes. Type of series: cell-based, human. The protocol: To circumvent this issue, we used a well-tested electroporation protocol to enhance cell uptake of the bivalent peptide (see Methods). HCT116 cells were evaluated either in the presence of bivalent peptide or vehicle (water), with or without Nutlin-3a (FIG. 3A, B). Nutlin-3a is a small molecule that activates and stabilizes p53 by inhibiting MDM2, a repressor of p53. […] After 3 h Nutlin-3a treatment (or DMSO control, ±bivalent peptide), nuclear RNA was isolated and biological replicate RNA-Seq libraries were prepared (FIG. 9A; Table 1).
A confounding issue with these experiments was that cellular uptake of the bivalent peptide could not be accurately measured and could potentially vary from experiment-to-experiment. To assess this possibility more thoroughly, we completed an additional round of RNA-Seq experiments in control vs. Nutlin-treated HCT116 cells (FIG. 9B; Table 1). These additional experiments (RNA-Seq experiment 2) were completed with a slightly modified protocol that included treatment in serum-free media as an effort to enhance peptide uptake. Importantly, the data from RNA-Seq experiment 2 (biological triplicate; FIG. 10) were consistent with the first series of biological replicates (RNA-Seq experiment 1; FIG. 3C-E) and in each case, repression of p53-dependent transcription by the bivalent peptide tracked with Nutlin induction levels (FIG. 9CE). Nutlin-induced activation of p53 target genes was inhibited in the presence of the bivalent peptide, providing further evidence that the bivalent peptide blocks p53 response in cells. However, the scope and magnitude of the effect was reduced in this second, independent set of RNA-Seq experiments (e.g. compare FIG. 3C, D & FIG. 10C, D). This broadly consistent but variable magnitude effect can also be seen from RNA-Seq reads at specific p53 target genes (RNA-Seq experiment 1, FIG. 4A, B; RNA-Seq experiment 2, FIG. 4C, D). The overall p53 response to Nutlin-3a was reduced in RNA Seq experiment 2 (GSEA p53 pathway NES=2.76 in RNA-Seq experiment 1 vs. NES=1.59 in RNASeq experiment 2), which therefore reduced the transcriptional impact of the bivalent peptide. However, we cannot rule out variable cellular uptake of the bivalent peptide as a contributing factor.
Electroporation of bivalent peptide into HCT116 cells (RNA-Seq experiment 1): Two 6-well plates (HCT116 cells) were grown to about 80% confluency. Cells were then trypsinized, washed with PBS, and resuspended in 150 μL Neon Buffer R. The cells were then split into two groups: No peptide and 10 μM peptide. The cells were then drawn into a 10 μL Neon pipet tip, electroporated and ejected into 2 mL of McCoy's 5A media without antibiotic. For each experiment, two cell electroporation aliquots were added to media containing either 0.1% DMSO (control) or 10 μM Nutlin-3a (in DMSO, to a final concentration of 0.1%). For wells containing cells electroporated with peptide, an additional 200 nM peptide was added to the well to allow for peptide uptake during the experiment. The 6-well plate was then placed back at 37° C. for 3 hours. After 3 hours, cells were scraped from the plates, transferred to a 15 mL conical vial, pelleted at 1,000×g, and washed in 10 mL phosphate buffered saline (PBS) solution. To isolate the nuclei, cells were resuspended in 10 mL lysis buffer (10 mM Tris-HCl, pH 7.4, 2 mM MgCl2, 3 mM CaCl2), 0.5% NP-40, 10% glycerol) and thoroughly mixed. The nuclei were spun down at 1,000×g for 10 minutes, the lysis buffer was removed, and 1 mL of TRIzol was added. The nuclear RNA was isolated as described in the TRIzol instructions, except an additional phenol/chloroform extraction and chloroform-only extraction were performed to reduce contaminants. RNA was precipitated and washed twice with 75% ethanol to further remove contaminants. The RNA was then converted to cDNA using the High Capacity cDNA kit from Thermo Fisher Scientific. […]

Another series deals with cells. As to conditions: prior analysis; cited from earlier work.

Sequence of GST-VP16AD (residues 411-490) (P08515 1-218, tags or fused parts left off): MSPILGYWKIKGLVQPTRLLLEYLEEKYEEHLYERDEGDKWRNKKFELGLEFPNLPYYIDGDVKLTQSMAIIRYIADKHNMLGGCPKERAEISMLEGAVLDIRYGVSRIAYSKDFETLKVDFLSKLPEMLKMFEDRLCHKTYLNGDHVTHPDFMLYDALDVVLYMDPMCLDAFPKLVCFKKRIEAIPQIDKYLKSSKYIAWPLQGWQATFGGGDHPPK

Compound “GST-VP16AD (residues 411-490) (from UniProt P08515 1-218; P06492 411-490)” gave a fold change of Mediator-bound VP16 with bivalent peptide vs. without in series [1] of 1.67 fold.
Turning to “BP1.5: N-acetylated hydrocarbon-stapled penta-arg p53AD1 mimic, SEQ ID NO. 5 RRETFZDRWKRLXRN”, in the series with basal transcription (5 μM peptide), the “effect on basal transcription, initial screen” value is “did not affect basal transcription”. For the same compound, the “effect on basal transcription, follow-up experiments” value with basal transcription is reported as “negatively affected basal transcription to some degree”.
As to `COc1ccc(C2=N[C@@H](c3ccc(Cl)cc3)[C@@H](c3ccc(Cl)cc3)N2C(=O)N2CCNC(=O)C2)c(OC(C)C)c1` [Nutlin-3a, reference compound], in series [2], the “pol II occupancy at the p21 locus” value was “strongly induced pol II at the p21 locus”. Further, the “expression of p53 target genes” value in series [3] (Nutlin-3a 10 μM, 3 h, HCT116) is “induced expression of p53 target genes”. The “GSEA p53 pathway NES, Nutlin response without peptide” value in series [3] (RNA-Seq experiment 1) stood at 2.76; in series [3] (RNA-Seq experiment 2), 1.59.
`CC(=O)N[C@@H](CCCNC(=N)N)C(=O)N[C@@H](CO)C(=O)N[C@@H](CCC(N)=O)C(=O)N[C@@H](CCC(=O)O)C(=O)N[C@@H](CCCNC(=N)N)C(=O)N[C@@H](Cc1ccccc1)C(=O)N[C@]1(C)CCCCCCC=CCCC[C@@](C)(C(=O)N[C@@H](CCCNC(=N)N)C(=O)N[C@@H](CCCNC(=N)N)C(N)=O)NC(=O)[C@H](CC(C)C)NC(=O)[C@H](CCCNC(=N)N)NC(=O)[C@H](CCCCN)NC(=O)[C@H](Cc2c[nH]c3ccccc23)NC(=O)[C@H](CC(C)C)NC(=O)[C@H](CC(=O)O)NC1=O` [BP1.4] (Ac-RSQERF[R8]DLWKRL[S5]RR-NH2; staple 7-14; C-terminus assumed): the cellular uptake entry in the series on cells was “not effectively taken up by cells”.
